The record followed here is ChEMBL document CHEMBL5131445, “Optimization of a novel piperazinone series as potent selective peripheral covalent BTK inhibitors” (Bioorg Med Chem Lett, 2022).

The structures appear in SMILES notation.

One may read the IC50 as the midpoint of a concentration-inhibition curve. For orientation: fraction unbound means free concentration divided by total concentration. Broadly, the Kd is the free concentration of one partner at which half of the binding sites on the other are occupied at equilibrium, for simple one-to-one binding. Broadly, the inhibition is the percentage by which the read-out fell short of the control. A low value points to a response near the control.

Data set [1] addresses Cytochrome P450 2D6 (Homo sapiens, UniProt P10635). The experiment in a line: Inhibition of human CYP2D6. It counts as ADME.
Data set [2] in a line: Metabolic stability in human liver microsomes assessed as intrinsic clearance. The class given is ADME, Microsome. As to conditions: read-out: CLH. (Liver microsomes are a subcellular fraction often used to study metabolism.)
Data set [3] can be described thus: Inhibition of CD69 expression on CD19 positive B cells in anti-IgD stimulated human whole blood. As to conditions: CD19 positive B cell. The class given is functional, tissue-based.
Data set [4] is described as follows: Plasma protein binding in human assessed as unbound fraction by rapid equilibrium dialysis method. It counts as ADME, cell-free. A general note: In equilibrium dialysis only unbound substance equilibrates across the membrane.
Data set [5] deals with Receptor tyrosine-protein kinase erbB-2 (Homo sapiens, UniProt P04626). In words: Binding affinity to ERBB2 (unknown origin) assessed as dissociation constant by KINOMEscan analysis.
Data set [6] deals with Cytochrome P450 3A4 (Homo sapiens, UniProt P08684). The experiment in a line: Inhibition of human CYP3A4. It counts as ADME.
In data set [7] the target is T1, Tyrosine-protein kinase BTK (Homo sapiens, UniProt Q06187). The experiment in a line: Inhibition of BTK in human Ramos cells assessed as target occupancy. The class given is cell-based.
The target of data set [8] is T2, Tyrosine-protein kinase JAK3 (Homo sapiens, UniProt P52333).
T2 sequence (P52333 whole entry): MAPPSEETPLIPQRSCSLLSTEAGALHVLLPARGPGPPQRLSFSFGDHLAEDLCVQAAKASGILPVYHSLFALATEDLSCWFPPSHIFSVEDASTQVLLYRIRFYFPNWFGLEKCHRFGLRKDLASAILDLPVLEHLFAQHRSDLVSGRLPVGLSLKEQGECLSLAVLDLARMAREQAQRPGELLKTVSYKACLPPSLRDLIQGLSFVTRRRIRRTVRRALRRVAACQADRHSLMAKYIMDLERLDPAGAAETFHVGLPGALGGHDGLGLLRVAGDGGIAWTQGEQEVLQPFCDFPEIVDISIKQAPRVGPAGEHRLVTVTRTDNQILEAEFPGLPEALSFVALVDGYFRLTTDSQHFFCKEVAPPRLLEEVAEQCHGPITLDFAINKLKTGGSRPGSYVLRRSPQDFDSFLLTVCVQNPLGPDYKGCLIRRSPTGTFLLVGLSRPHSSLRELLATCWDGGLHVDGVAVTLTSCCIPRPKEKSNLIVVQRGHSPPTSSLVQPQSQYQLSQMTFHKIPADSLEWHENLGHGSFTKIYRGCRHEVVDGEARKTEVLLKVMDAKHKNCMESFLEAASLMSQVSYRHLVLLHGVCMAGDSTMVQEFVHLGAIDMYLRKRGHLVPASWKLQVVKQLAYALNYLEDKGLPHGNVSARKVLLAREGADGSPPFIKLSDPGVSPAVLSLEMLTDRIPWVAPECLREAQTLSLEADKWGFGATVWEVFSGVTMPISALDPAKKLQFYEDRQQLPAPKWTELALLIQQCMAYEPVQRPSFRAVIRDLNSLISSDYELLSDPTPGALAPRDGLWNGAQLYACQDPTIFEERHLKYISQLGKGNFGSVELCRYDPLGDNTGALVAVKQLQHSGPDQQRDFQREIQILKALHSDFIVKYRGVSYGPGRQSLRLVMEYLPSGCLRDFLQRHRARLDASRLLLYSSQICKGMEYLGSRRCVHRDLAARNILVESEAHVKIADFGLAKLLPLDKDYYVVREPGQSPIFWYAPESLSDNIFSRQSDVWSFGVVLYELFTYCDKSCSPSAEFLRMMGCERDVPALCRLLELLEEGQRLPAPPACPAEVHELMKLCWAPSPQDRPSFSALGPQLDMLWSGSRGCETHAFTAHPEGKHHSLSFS
The experiment in a line: Binding affinity to JAK3 (unknown origin) assessed as dissociation constant by KINOMEscan analysis.

The nature of data set [9]: Metabolic stability in rat liver microsomes assessed as intrinsic clearance. The class given is ADME, Microsome. As to conditions: read-out: CLH.
Data set [10] concerns the target Tyrosine-protein kinase Blk (Homo sapiens, UniProt P51451). The experiment in a line: Binding affinity to BLK (unknown origin) assessed as dissociation constant by KINOMEscan analysis.
Data set [11] deals with T1, Tyrosine-protein kinase BTK. The experiment in a line: Inhibition of BTK (unknown origin).
In data set [12] the target is Voltage-gated inwardly rectifying potassium channel KCNH2 (Homo sapiens, UniProt Q12809). The experiment in a line: Inhibition of hERG. It counts as toxicity. Background: hERG is a cardiac potassium channel; its block is linked to QT prolongation.
The target in data set [13] is T3, Cytochrome P450 2C8 (Homo sapiens, UniProt P10632).
T3 sequence (P10632 whole entry): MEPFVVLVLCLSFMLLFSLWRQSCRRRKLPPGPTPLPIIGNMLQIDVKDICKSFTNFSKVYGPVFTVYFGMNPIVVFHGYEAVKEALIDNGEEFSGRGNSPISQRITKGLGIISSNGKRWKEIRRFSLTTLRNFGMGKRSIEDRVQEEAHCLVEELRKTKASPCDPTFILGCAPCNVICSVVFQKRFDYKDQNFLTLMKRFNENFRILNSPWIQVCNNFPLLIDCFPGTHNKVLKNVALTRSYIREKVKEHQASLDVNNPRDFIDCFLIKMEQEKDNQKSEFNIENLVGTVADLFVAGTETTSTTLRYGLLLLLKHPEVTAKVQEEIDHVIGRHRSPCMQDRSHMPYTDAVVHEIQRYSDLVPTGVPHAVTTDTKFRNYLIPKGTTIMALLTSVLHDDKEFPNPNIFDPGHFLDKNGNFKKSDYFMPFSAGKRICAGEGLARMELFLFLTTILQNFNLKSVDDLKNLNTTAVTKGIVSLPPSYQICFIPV
In words: Inhibition of human CYP2C8. It counts as ADME.

Data set [14] relates to BCRP. In words: Permeability across apical to basolateral side in dog MDCK-BCRP cells. It counts as ADME, cell-based, Canis lupus familiaris. The conditions noted are these: read-out: permeability.
The target of data set [15] is T1, Tyrosine-protein kinase BTK. The experiment in a line: Inhibition of BTK (unknown origin) at 1 uM by KINOMEscan assay relative to control.
Data set [16] is described as follows: Volume of distribution at steady state in iv dosed Sprague-Dawley rat. It counts as ADME, organism-based. As to conditions: in vivo, read-out: Vdss.
The target in data set [17] is T4, Tyrosine-protein kinase ITK/TSK (Homo sapiens, UniProt Q08881).
T4 sequence (Q08881 whole entry): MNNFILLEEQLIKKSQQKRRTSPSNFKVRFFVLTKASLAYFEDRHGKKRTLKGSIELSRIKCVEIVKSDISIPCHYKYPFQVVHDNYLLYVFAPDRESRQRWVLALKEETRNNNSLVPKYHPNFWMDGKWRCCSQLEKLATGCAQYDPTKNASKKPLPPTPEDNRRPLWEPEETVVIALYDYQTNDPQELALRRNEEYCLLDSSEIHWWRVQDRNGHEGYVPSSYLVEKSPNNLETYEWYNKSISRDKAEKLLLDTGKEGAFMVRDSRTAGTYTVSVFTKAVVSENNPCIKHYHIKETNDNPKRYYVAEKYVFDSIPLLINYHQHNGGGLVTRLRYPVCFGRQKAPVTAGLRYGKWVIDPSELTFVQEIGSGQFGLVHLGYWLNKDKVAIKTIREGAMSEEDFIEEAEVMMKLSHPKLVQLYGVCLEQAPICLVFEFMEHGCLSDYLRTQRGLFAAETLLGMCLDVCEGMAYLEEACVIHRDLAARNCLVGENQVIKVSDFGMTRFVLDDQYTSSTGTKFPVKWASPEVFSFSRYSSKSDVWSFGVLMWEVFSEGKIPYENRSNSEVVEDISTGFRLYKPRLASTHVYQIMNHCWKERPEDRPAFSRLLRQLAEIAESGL
The experiment in a line: Binding affinity to ITK (unknown origin) assessed as dissociation constant by KINOMEscan analysis.

T1 sequence (Q06187 whole entry): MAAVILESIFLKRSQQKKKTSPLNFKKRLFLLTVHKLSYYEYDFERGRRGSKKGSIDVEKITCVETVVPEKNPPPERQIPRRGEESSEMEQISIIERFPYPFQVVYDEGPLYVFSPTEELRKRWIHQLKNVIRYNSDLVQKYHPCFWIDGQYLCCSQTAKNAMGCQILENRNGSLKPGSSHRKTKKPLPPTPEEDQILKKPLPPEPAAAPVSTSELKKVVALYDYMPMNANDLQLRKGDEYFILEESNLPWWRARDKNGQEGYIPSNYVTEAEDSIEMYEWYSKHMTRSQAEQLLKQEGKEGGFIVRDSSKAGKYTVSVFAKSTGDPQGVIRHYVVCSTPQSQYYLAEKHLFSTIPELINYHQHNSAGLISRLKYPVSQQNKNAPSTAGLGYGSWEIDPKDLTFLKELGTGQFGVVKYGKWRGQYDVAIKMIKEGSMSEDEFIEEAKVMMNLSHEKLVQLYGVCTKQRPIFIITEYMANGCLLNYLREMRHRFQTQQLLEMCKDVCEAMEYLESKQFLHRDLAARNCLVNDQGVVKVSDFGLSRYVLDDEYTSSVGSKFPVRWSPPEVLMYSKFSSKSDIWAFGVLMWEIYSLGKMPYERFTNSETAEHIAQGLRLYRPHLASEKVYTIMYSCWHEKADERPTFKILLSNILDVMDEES
Chain of Tyrosine-protein kinase Blk (P51451 whole entry): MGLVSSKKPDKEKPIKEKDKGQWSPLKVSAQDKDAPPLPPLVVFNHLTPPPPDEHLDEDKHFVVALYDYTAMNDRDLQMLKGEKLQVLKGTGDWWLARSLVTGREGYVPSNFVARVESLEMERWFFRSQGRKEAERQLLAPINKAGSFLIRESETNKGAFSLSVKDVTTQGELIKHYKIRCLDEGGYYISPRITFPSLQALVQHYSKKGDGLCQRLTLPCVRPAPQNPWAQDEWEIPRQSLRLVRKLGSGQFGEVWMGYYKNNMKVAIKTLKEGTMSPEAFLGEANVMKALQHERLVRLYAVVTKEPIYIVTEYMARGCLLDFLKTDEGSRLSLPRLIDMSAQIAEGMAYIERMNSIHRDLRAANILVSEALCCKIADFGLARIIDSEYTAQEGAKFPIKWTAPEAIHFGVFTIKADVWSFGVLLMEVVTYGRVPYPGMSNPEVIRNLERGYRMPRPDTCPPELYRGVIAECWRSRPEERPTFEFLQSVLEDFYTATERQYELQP
Chain of Cytochrome P450 2D6 (P10635 whole entry): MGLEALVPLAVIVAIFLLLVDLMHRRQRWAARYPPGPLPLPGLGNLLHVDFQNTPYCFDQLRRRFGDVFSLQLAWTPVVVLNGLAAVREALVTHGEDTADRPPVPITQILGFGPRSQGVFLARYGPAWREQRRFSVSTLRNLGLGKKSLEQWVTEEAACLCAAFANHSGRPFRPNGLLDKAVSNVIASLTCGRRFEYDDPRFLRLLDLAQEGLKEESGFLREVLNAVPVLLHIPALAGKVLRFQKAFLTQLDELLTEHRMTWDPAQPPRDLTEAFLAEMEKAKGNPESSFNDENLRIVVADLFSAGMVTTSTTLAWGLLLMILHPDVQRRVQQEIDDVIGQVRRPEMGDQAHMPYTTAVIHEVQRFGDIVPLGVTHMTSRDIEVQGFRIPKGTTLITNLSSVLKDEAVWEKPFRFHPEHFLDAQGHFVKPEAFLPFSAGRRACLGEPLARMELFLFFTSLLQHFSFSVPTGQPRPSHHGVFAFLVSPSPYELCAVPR
Chain of Voltage-gated inwardly rectifying potassium channel KCNH2 (Q12809 whole entry): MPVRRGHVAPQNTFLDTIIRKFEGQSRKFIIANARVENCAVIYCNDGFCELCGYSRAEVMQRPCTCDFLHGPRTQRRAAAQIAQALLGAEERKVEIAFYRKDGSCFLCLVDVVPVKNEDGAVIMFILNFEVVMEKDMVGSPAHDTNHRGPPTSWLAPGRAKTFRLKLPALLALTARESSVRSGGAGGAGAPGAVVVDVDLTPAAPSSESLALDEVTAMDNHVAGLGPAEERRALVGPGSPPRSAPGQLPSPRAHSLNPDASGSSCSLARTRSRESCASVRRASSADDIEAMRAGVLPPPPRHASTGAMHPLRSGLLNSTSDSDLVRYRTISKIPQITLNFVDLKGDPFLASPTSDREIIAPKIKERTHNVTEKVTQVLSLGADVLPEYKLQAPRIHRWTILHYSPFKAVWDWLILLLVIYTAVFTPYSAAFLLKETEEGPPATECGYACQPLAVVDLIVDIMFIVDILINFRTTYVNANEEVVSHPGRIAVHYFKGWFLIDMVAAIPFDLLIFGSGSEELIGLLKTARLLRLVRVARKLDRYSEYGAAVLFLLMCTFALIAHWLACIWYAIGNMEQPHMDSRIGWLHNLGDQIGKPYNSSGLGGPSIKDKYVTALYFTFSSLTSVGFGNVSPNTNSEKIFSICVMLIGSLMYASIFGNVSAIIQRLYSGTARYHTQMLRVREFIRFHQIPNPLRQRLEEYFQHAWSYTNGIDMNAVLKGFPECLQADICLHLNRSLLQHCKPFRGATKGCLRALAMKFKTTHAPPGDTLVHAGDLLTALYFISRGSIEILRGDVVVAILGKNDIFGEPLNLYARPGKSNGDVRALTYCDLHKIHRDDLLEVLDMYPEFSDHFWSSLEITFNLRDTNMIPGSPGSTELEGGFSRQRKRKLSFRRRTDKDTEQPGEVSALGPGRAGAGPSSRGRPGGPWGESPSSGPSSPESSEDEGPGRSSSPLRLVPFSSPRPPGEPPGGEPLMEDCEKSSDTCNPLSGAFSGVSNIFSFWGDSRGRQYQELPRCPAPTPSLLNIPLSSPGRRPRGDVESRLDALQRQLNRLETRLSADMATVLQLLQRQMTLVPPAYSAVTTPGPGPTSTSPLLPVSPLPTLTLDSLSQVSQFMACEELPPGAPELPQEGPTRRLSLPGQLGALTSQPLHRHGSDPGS
Chain of Receptor tyrosine-protein kinase erbB-2 (P04626 whole entry): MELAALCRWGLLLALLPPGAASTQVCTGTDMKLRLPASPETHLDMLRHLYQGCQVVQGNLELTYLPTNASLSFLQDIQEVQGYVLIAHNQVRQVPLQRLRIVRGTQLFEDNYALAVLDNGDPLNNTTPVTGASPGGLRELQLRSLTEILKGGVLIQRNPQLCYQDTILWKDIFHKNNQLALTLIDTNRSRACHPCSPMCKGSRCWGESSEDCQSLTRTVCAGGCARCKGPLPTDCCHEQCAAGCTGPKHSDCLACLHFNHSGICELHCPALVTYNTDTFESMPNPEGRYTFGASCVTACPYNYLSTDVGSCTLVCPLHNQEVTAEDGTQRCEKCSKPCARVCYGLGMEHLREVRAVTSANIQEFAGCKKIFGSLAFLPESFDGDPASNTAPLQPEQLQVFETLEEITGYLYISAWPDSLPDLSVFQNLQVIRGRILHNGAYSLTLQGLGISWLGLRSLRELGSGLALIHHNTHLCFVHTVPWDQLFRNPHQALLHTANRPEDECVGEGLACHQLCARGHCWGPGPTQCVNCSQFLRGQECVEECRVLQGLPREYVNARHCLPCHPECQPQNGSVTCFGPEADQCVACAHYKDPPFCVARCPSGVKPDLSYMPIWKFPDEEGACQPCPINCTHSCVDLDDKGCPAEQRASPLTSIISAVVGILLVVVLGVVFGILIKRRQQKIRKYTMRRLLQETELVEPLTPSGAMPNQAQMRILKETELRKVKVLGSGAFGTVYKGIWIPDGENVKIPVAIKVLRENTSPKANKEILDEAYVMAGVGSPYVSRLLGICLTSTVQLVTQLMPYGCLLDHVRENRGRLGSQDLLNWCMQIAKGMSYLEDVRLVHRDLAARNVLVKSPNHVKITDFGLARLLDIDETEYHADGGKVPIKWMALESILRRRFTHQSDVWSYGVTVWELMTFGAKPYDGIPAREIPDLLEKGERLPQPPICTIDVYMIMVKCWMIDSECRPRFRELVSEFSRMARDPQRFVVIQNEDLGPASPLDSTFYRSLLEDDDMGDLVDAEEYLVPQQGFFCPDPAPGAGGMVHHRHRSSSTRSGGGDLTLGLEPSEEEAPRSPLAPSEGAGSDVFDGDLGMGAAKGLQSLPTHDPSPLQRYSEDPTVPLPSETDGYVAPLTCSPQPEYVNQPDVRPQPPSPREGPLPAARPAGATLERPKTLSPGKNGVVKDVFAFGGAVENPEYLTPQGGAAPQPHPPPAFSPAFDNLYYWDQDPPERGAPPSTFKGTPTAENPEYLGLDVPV
Chain of Cytochrome P450 3A4 (P08684 whole entry): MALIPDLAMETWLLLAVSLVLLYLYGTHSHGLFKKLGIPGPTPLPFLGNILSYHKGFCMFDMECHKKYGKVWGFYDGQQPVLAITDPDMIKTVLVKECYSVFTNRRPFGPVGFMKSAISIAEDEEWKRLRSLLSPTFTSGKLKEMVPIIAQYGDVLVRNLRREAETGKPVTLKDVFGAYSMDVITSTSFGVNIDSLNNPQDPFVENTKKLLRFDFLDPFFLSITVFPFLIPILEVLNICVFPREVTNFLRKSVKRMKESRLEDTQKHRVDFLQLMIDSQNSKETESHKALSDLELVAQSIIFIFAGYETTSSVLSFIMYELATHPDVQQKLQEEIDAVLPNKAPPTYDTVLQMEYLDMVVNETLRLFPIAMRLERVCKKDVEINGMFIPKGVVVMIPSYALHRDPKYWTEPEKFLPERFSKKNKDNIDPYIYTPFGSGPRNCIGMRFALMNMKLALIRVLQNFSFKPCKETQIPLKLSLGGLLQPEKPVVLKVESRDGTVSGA

With `C=CC(=O)N(C)CCOc1c(N)ncnc1-c1ccc(CN2CCN(CC(C)C)CC2=O)c(C)c1`, the IC50 in [1] was more than 10 µM; in [3], 0.03 µM; in [6], more than 10 µM; in data set [7], 0.0031 µM; in data set [11], 0.00022 µM; in data set [12], more than 60 µM. The half-inhibitory concentration (IC50) in data set [13] is more than 10 µM. For the same compound, the CLint scaled in data set [2] was found to be 66 mL/min/kg; in data set [9] it was 154 mL/min/kg. Also, in [4], the fraction unbound is 0.227. The equilibrium dissociation constant (Kd) is 20 µM in data set [5], 2.9 µM in [8], 10 µM in data set [10] and 30 µM in data set [17]. Moreover, the Papp A→B in data set [14] worked out at 0.4 ×10⁻⁶ cm/s. For the same compound, the inhibition in data set [15] is more than 90%. For the same compound, the Vd in data set [16] was 126 L/kg.
